In the SangsterLogP compilation one finds logP data, which are given here for 19 molecules.

What is called logP is a log measure of how a compound divides between an organic and an aqueous phase.

The series is described as follows: method code SF-AS, from DOI: 10.1007/bf00500963, PMID: 600309.
For the molecule `Cc1ccccc1N=C1NCCN1`, the logP turned out to be 1.28.

For the molecule `Brc1cc(Br)c(N=C2NCCN2)c(Br)c1`, the logP worked out at 2.74. For `Clc1cccc(Br)c1N=C1NCCN1` the value was 1.73; for `CCc1cccc(CC)c1N=C1NCCN1`, 2.6.

`Clc1cccc(Cl)c1N=C1NCCN1` displayed a logP of 1.59. Then `Clc1cccc(NC2=NCCN2)c1Cl`, with 2.01. For `Cc1cc(Br)cc(C)c1N=C1NCCN1` the value was 2.8. Then `Cc1ccc(N=C2NCCN2)c(C)c1`, with 1.78. `Clc1ccc(Cl)c(N=C2NCCN2)c1` showed a logP of 2.04. The molecule `O=[N+]([O-])c1cc(Cl)c(N=C2NCCN2)c(Cl)c1` yielded a logP of 2.1. Then `Cc1cc(Cl)c(NC2=NCCN2)c(Cl)c1`, with 1.92. Then `Cc1cc(Cl)cc(Cl)c1N=C1NCCN1`, with 2.38; and `Clc1cc(Br)cc(Cl)c1N=C1NCCN1`, with 2.66. For `Cc1cc(C)c(N=C2NCCN2)c(Cl)c1` the value was 2.1. In turn, `Clc1ccccc1N=C1NCCN1` displayed a logP of 1.36.

In turn, `COc1cc(Cl)c(N=C2NCCN2)c(Cl)c1` yielded a logP of 1.6. Then `Cc1cc(Cl)cc(C)c1N=C1NCCN1`, with 2.5; and `Fc1cccc(Cl)c1N=C1NCCN1`, with 1.45; and `Cc1cc(C)c(N=C2NCCN2)c(C)c1`, with 2.32.
